The CombiSolv-Exp solvation set (Vermeire and Green 2021)

Assay: solvent given as SMILES

Cc1ccccc1C(=O)O
Conditions | solvation free energy, 298 K [kJ/mol]
in C1CCOC1 | -38.9
in C1COCCO1 | -38.7
in CC(C)(C)O | -38.2
in CC(C)CCO | -37.4
in CC(C)CO | -36.9
in CC(C)O | -37.9
in CC(C)OC(C)C | -35.8
in CCC(C)O | -37.7
in CCCC(C)O | -37.6
in CCCCCCCCCCO | -36.4
in CCCCCCCCO | -36.7
in CCCCCCCO | -36.9
in CCCCCCO | -37.1
in CCCCCO | -37.3
in CCCCCOC(C)=O | -36.4
in CCCCO | -37.5
in CCCCOC(C)=O | -36.7
in CCCO | -37.7
in CCO | -38.2
in CCOC(C)=O | -37.3
in CCOCC | -37.4
in COC(C)=O | -37.3
in O | -24.6

NCCc1ccccc1
Conditions | solvation free energy, 298 K [kJ/mol]
in C=CCCCCCCC=C | -31
in O | -27.4

COc1ncnc(NS(=O)(=O)c2ccc(N)cc2)c1OC
Conditions | solvation free energy, 298 K [kJ/mol]
in O | -81.9

S
Conditions | solvation free energy, 298 K [kJ/mol]
in Brc1ccccc1 | -5.44
in C1CCC2CCCCC2C1 | -4.14
in CC1COC(=O)O1 | -6.23
in CC(=O)N(C)C | -9.41
in CC(C)=O | -7.95
in CCCCCCCCCCCCCCCC | -3.68
in CN1CCCC1=O | -9.2
in CN(C)C=O | -9.2
in CN(C)P(=O)(N(C)C)N(C)C | -11
in CO | -7.2
in COC(=O)CC#N | -5.65
in COCCOCCO | -7.99
in COCCOCCOC | -8.2
in COCCOCCOCCOC | -7.7
in COCCOCCOCCOCCOC | -8.24
in CS(C)=O | -8.54
in Clc1ccccc1 | -6.28
in Nc1ccccc1 | -7.11
in O | -2.72
in O=CN1CCOCC1 | -7.57
in OCCCOCCCO | -5.19
in OCCO | -4.9
in OCCOCCO | -5.61
in OCCOCCOCCO | -5.52
in OCc1ccccc1 | -5.65

O=C1NC(=O)c2ccccc21
Conditions | solvation free energy, 298 K [kJ/mol]
in O | -40.2

Clc1ccccc1Cl
Conditions | solvation free energy, 298 K [kJ/mol]
in C1CCOC1 | -29.7
in C1COCCO1 | -29.3
in CCCCCC | -25.7
in CCCCCCC | -25.1
in CCCCCCCCCCCCCCCC | -25.3
in CCCCCCCCO | -24.9
in CN(C)C=O | -28.5
in ClC(Cl)(Cl)Cl | -28.4
in N#Cc1ccccc1 | -28.5
in NC=O | -19
in O | -5.86

O=C(Oc1ccccc1)c1ccccc1O
Conditions | solvation free energy, 298 K [kJ/mol]
in CC(C)CO | -51.1
in CC(C)O | -51.2
in CCC(C)O | -52.2
in CCCCO | -52
in CCCO | -52
in CCO | -52.1
in CO | -52.1

Fc1ccccc1
Conditions | solvation free energy, 298 K [kJ/mol]
in C1CCOC1 | -20.7
in C1COCCO1 | -19.6
in CC(O)CO | -14.8
in CCCCCC | -17.4
in CCCCCCC | -17.3
in CCCCCCCCCC | -14.6
in CCCCCCCCCCCCCCCC | -15.9
in CN(C)C=O | -19.9
in COCCO | -18.4
in N#Cc1ccccc1 | -19
in NC=O | -11.7
in O | -3.35
in OCCO | -12.2

COc1ccccc1
Conditions | solvation free energy, 298 K [kJ/mol]
in CCCCCCC | -22.4
in CCCCCCCCCCCCCCCC | -21.8
in CCCCCCCCO | -22.8
in O | -10.6
in [2H]O[2H] | -11

CC(=O)CC(=O)C(C)(C)C
Conditions | solvation free energy, 298 K [kJ/mol]
in O | -21.4

O=S1OCC2C(CO1)C1(Cl)C(Cl)=C(Cl)C2(Cl)C1(Cl)Cl (centres undefined)
Conditions | solvation free energy, 298 K [kJ/mol]
in CCCCCCCCO | -54.4

C=C
Conditions | solvation free energy, 298 K [kJ/mol]
in Brc1ccccc1 | -2.18
in C1CCC2CCCCC2C1 | -1.92
in C1CCOC1 | -3.43
in C1COCCO1 | -2.43
in CC1CO1 | -3.72
in CC1COC(=O)O1 | -0.711
in CC#N | -2.59
in CC(=O)N(C)C | -1.88
in CC(C)(C)O | -2.05
in CC(C)=O | -3.18
in CC(C)CO | -1.92
in CC(C)O | -1.88
in CCC(C)O | -1.84
in CCCCC | -2.89
in CCCCCC | -2.68
in CCCCCCC | -2.59
in CCCCCCCC | -2.51
in CCCCCCCCC | -2.51
in CCCCCCCCCC | -2.38
in CCCCCCCCCCCCCCCC | -1.63
in CCCCCCCCO | -1.55
in CCCCCCCO | -1.8
in CCCCCCO | -1.8
in CCCCCO | -2.01
in CCCCO | -1.92
in CCCO | -2.18
in CCO | -2.34
in CCOCC | -4.06
in CN1CCCC1 | -1.34
in CN1CCCC1=O | -1.67
in CN(C)C=O | -1.88
in CN(C)P(=O)(N(C)C)N(C)C | -2.18
in CNC=O | -0.837
in CO | -2.13
in COC(C)=O | -3.14
in COCCOCCOCCOC | -1.05
in CS(C)=O | -0.209
in Cc1cccc(C)c1 | -2.55
in ClC(Cl)(Cl)Cl | -3.26
in ClCCCl | -2.05
in Clc1ccccc1 | -2.55
in N#Cc1ccccc1 | -1.88
in Nc1ccccc1 | -0.628
in O | 5.36
in O=C1CCCC1 | -2.51
in O=C1CCCCC1 | -2.3
in OCCCOCCCO | 0.251
in OCCO | 2.09
in OCc1ccccc1 | -0.962
in c1ccccc1 | -2.76

CC(N)C(=O)C1OS(=O)OCC2C1C1(Cl)C(Cl)=C(Cl)C2(Cl)C1(Cl)Cl (centres undefined)
Conditions | solvation free energy, 298 K [kJ/mol]
in CCCCCCCCO | -48.1

CCCOCCC
Conditions | solvation free energy, 298 K [kJ/mol]
in C=CCCCCCCCCCCCCCC | -16.7
in CC(C)(C)O | -17.3
in CC(C)CO | -17.4
in CC(C)O | -16.8
in CCC(C)=O | -18.3
in CCC(C)O | -17.4
in CCCCCCCCCCCCCCCC | -16.8
in CCCCCCCCO | -16.9
in CCCCCCO | -17.2
in CCCCCl | -19.6
in CCCCO | -17.3
in CN(C)C=O | -15.1
in CO | -16.5
in ClC(Cl)(Cl)Cl | -20.2
in ClCCl | -21
in O | -5.15
in [2H]O[2H] | -5.73

CCN(N=O)C(C)C
Conditions | solvation free energy, 298 K [kJ/mol]
in O | -22.8

CCCCN(CCCC)CCCC
Conditions | solvation free energy, 298 K [kJ/mol]
in O | -17.1

CCSc1nc(NC(C)C)nc(NC(C)C)n1
Conditions | solvation free energy, 298 K [kJ/mol]
in O | -37.7

CCCCCCCI
Conditions | solvation free energy, 298 K [kJ/mol]
in O | 1.13

CCCCC(=O)CCCC
Conditions | solvation free energy, 298 K [kJ/mol]
in O | -11

O=S1(=O)CCCC1
Conditions | solvation free energy, 298 K [kJ/mol]
in O | -36

CN(C)CCc1ccc(O)cc1
Conditions | solvation free energy, 298 K [kJ/mol]
in C=CCCCCCCC=C | -42.1
in O | -47.3

COC(=O)CC#N
Conditions | solvation free energy, 298 K [kJ/mol]
in O | -28.1

CN1C(=O)C(O)N=C(c2ccccc2)c2cc(Cl)ccc21 (centres undefined)
Conditions | solvation free energy, 298 K [kJ/mol]
in CC(C)O | -75.9
in CCCCCCO | -77.9
in CCCCCO | -77.2
in CCCCO | -77.4
in CCCO | -77.5
in CCO | -77.9
in CN(C)C=O | -83.8
in CO | -80
in O | -63.5
in O=C1CCCCC1 | -82.1

Cc1nnc(NS(=O)(=O)c2ccc(N)cc2)s1
Conditions | solvation free energy, 298 K [kJ/mol]
in O | -80.7

Cc1cc(C)nc(NS(=O)(=O)c2ccc(N)cc2)n1
Conditions | solvation free energy, 298 K [kJ/mol]
in O | -83.5
